Results taken from patent US11000033B2, “Ketone or oxime compound, and herbicide” (NISSAN CHEMICAL CORPORATION, priority 2014, dated 2021).

Columns and labels:
Format in all cases: in vivo
[1] = tested on: Echinochloa oryzacola Vasing.; test: Test Example 1: herbicidal activity, application before weed generation in submerged conditions (symbol A); conditions: application herbicide amount 320 g/ha
Summary of the method: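 Ratings (5: ≥90%, near complete withering; 4: 70–<90%; 3: 40–<70%; 2: 20–<40%; 1: 5–<20%; 0: ≤5%) were assigned 3 weeks after the diluted emulsion was applied to the water surface of freshly sown, submerged pots.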

transplanted rice plant = test: Test Example 1: effect on crop, application before weed generation in submerged conditions (symbol a); conditions: application herbicide amount 320 g/ha
Summary of the method: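 Alluvial soil pots flooded to 4 cm water, sown with Echinochloa oryzacola, Scirpus juncoides and Monochoria vaginalis, then transplanted with 2.5 leaf stage rice seedlings; pre-emergence application. Greenhouse 25° C. to 30° C.; scored 0–5 by herbicidal ratio 3 weeks after application.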

[2] = tested on: Echinochloa crus-galli var. crus-galli; test: Test Example 3: herbicidal effect by foliage application, Wagner pot (symbol H); conditions: application herbicide amount 320 g/ha
Summary of the method: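 Rating at 3 weeks post-spray, by defined criteria. Treatment: emulsion diluted with water to a predetermined amount, applied evenly to foliage of 14-day-old plants raised in alluvial soil flooded 0.1–0.5 cm deep at 25–30 °C, rice co-sown.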

Stellaria media = test: Test Example 4: herbicidal effect by soil treatment (symbol P); conditions: application herbicide amount 320 g/ha
Summary of the method: (§1)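 Seeds were sown in sterilized diluvial soil, covered with about 1.5 cm of soil, and the soil surface was sprayed with a water-diluted emulsion of the compound at a predetermined rate. Plants grew in a greenhouse at 25° C. to 30° C.; effects were scored visually 3 weeks after application.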

Veronica persica = test: Test Example 4: herbicidal effect by soil treatment (symbol R); conditions: application herbicide amount 320 g/ha
Summary of the method: as §1

corn = test: Test Example 4: effect on crop by soil treatment (symbol c); conditions: application herbicide amount 320 g/ha
Summary of the method: (§2)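 Steps: fill box with sterilized diluvial soil; sow seed spot-like; cover with ~1.5 cm soil; grow in greenhouse (25° C. to 30° C.).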

soybean [3] = test: Test Example 4: effect on crop by soil treatment (symbol d); conditions: application herbicide amount 320 g/ha
Summary of the method: as §2

beet [4] = test: Test Example 4: effect on crop by soil treatment (symbol f); conditions: application herbicide amount 320 g/ha
Summary of the method: as §2

Alopecurus myosuroides = test: Test Example 5: herbicidal effect by foliage application, plastic box (symbol J); conditions: 320 g/ha, 3 weeks after application
Summary of the method: (§3)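 After sowing into sterilized diluvial soil and growing two weeks under glass at 25° C. to 30° C., seedlings receive a uniform foliar spray of diluted emulsion. Damage is judged visually three weeks on.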

Abutilon theophrasti = test: Test Example 5: herbicidal effect by foliage application, plastic box (symbol M); conditions: 320 g/ha, 3 weeks after application
Summary of the method: as §3

Galium spurium = test: Test Example 5: herbicidal effect by foliage application, plastic box (symbol Q); conditions: 320 g/ha, 3 weeks after application
Summary of the method: as §3

soybean [5] = test: Test Example 5: effect on crop by foliage application, plastic box (symbol d); conditions: 320 g/ha, 3 weeks after application
Summary of the method: (§4)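 Diluvial soil, sterilized and boxed (21 × 13 × 7 cm), received spot-sown seed covered by about 1.5 cm soil; plants were then greenhouse-grown at 25–30° C.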

rice plant = test: Test Example 5: effect on crop by foliage application, plastic box (symbol b); conditions: 320 g/ha, 3 weeks after application
Summary of the method: as §4

wheat = test: Test Example 5: effect on crop by foliage application, plastic box (symbol e); conditions: 320 g/ha, 3 weeks after application
Summary of the method: as §4

beet [6] = test: Test Example 5: effect on crop by foliage application, plastic box (symbol f); conditions: 320 g/ha, 3 weeks after application
Summary of the method: as §4

Compound: CON=C(C)CC1CC(OS(=O)(=O)N(C)C)=C(c2c(C)cc(-c3ccc(F)cc3)cc2C)C1=O (mixture of isomers) [6-060]
- Herbicidal effect grade, A: Echinochloa oryzacola Vasing. [1]: 5 (Herbicidal ratio of 90% or more (almost completely withered))
- Effect grade on crop, a: transplanted rice plant (transplanted rice plant): 5 (Herbicidal ratio of 90% or more (almost completely withered))
- herbicidal effect on H (Echinochloa crus-galli var. crus-galli), grade 0-5 [2]: 5 (Herbicidal ratio of 90% or more (almost completely withered))
- P: Stellaria media, herbicidal effect grade (Stellaria media): 0 (Herbicidal ratio of 5% or lower (almost no effect))
- R: Veronica persica, herbicidal effect grade (Veronica persica): 2 (Herbicidal ratio of 20% or higher and lower than 40%)
- c: corn, effect on crop grade (corn): 0 (Herbicidal ratio of 5% or lower (almost no effect))
- d: soybean, effect on crop grade (soybean [3]): 0 (Herbicidal ratio of 5% or lower (almost no effect))
- f: beet, effect on crop grade (beet [4]): 0 (Herbicidal ratio of 5% or lower (almost no effect))
- J: Alopecurus myosuroides, herbicidal effect (criteria of Test Example 1) (Alopecurus myosuroides): 5 (Herbicidal ratio of 90% or more (almost completely withered))
- M: Abutilon theophrasti, herbicidal effect (criteria of Test Example 1) (Abutilon theophrasti): 5 (Herbicidal ratio of 90% or more (almost completely withered))
- Q: Galium spurium, herbicidal effect (criteria of Test Example 1) (Galium spurium): 4 (Herbicidal ratio of 70% or higher and lower than 90%)
- d: soybean, effect on crop (criteria of Test Example 1) (soybean [5]): 1 (Herbicidal ratio of 5% or higher and lower than 20%)
- b: directly sowed rice plant, effect on crop (criteria of Test Example 1) (rice plant): 5 (Herbicidal ratio of 90% or more (almost completely withered))
- e: wheat, effect on crop (criteria of Test Example 1) (wheat): 4 (Herbicidal ratio of 70% or higher and lower than 90%)
- f: beet, effect on crop (criteria of Test Example 1) (beet [6]): 2 (Herbicidal ratio of 20% or higher and lower than 40%)

Compound: CON=C(C)CC1CC(OC(=O)COc2ccccc2)=C(c2c(C)cc(-c3ccc(Cl)cc3)cc2OC)C1=O (stereo not shown) [6-079]
- Herbicidal effect grade, A: Echinochloa oryzacola Vasing. [1]: 4 (Herbicidal ratio of 70% or higher and lower than 90%)
- Effect grade on crop, a: transplanted rice plant (transplanted rice plant): 5 (Herbicidal ratio of 90% or more (almost completely withered))
- herbicidal effect on H (Echinochloa crus-galli var. crus-galli), grade 0-5 [2]: 5 (Herbicidal ratio of 90% or more (almost completely withered))
- P: Stellaria media, herbicidal effect grade (Stellaria media): 0 (Herbicidal ratio of 5% or lower (almost no effect))
- R: Veronica persica, herbicidal effect grade (Veronica persica): 3 (Herbicidal ratio of 40% or higher and lower than 70%)
- c: corn, effect on crop grade (corn): 0 (Herbicidal ratio of 5% or lower (almost no effect))
- d: soybean, effect on crop grade (soybean [3]): 0 (Herbicidal ratio of 5% or lower (almost no effect))
- f: beet, effect on crop grade (beet [4]): 0 (Herbicidal ratio of 5% or lower (almost no effect))
- J: Alopecurus myosuroides, herbicidal effect (criteria of Test Example 1) (Alopecurus myosuroides): 5 (Herbicidal ratio of 90% or more (almost completely withered))
- M: Abutilon theophrasti, herbicidal effect (criteria of Test Example 1) (Abutilon theophrasti): 4 (Herbicidal ratio of 70% or higher and lower than 90%)
- Q: Galium spurium, herbicidal effect (criteria of Test Example 1) (Galium spurium): 4 (Herbicidal ratio of 70% or higher and lower than 90%)
- b: directly sowed rice plant, effect on crop (criteria of Test Example 1) (rice plant): 5 (Herbicidal ratio of 90% or more (almost completely withered))
- e: wheat, effect on crop (criteria of Test Example 1) (wheat): 5 (Herbicidal ratio of 90% or more (almost completely withered))
- f: beet, effect on crop (criteria of Test Example 1) (beet [6]): 0 (Herbicidal ratio of 5% or lower (almost no effect))

Compound: CON=C(C)CC1CC(O)=C(c2c(C)cccc2C)C1=O (stereo not shown) [6-112]
- Herbicidal effect grade, A: Echinochloa oryzacola Vasing. [1]: 5 (Herbicidal ratio of 90% or more (almost completely withered))
- Effect grade on crop, a: transplanted rice plant (transplanted rice plant): 4 (Herbicidal ratio of 70% or higher and lower than 90%)
- herbicidal effect on H (Echinochloa crus-galli var. crus-galli), grade 0-5 [2]: 5 (Herbicidal ratio of 90% or more (almost completely withered))
- Herbicidal effect grade, P: Stellaria media (Stellaria media): 0 (Herbicidal ratio of 5% or lower (almost no effect))
- Herbicidal effect grade, R: Veronica persica (Veronica persica): 0 (Herbicidal ratio of 5% or lower (almost no effect))
- Effect on crop grade, c: corn (corn): 1 (Herbicidal ratio of 5% or higher and lower than 20%)
- Effect on crop grade, d: soybean (soybean [3]): 0 (Herbicidal ratio of 5% or lower (almost no effect))
- Effect on crop grade, f: beet (beet [4]): 0 (Herbicidal ratio of 5% or lower (almost no effect))
- J: Alopecurus myosuroides, herbicidal effect (criteria of Test Example 1) (Alopecurus myosuroides): 5 (Herbicidal ratio of 90% or more (almost completely withered))
- M: Abutilon theophrasti, herbicidal effect (criteria of Test Example 1) (Abutilon theophrasti): 4 (Herbicidal ratio of 70% or higher and lower than 90%)
- Q: Galium spurium, herbicidal effect (criteria of Test Example 1) (Galium spurium): 0 (Herbicidal ratio of 5% or lower (almost no effect))
- d: soybean, effect on crop (criteria of Test Example 1) (soybean [5]): 3 (Herbicidal ratio of 40% or higher and lower than 70%)
- b: directly sowed rice plant, effect on crop (criteria of Test Example 1) (rice plant): 5 (Herbicidal ratio of 90% or more (almost completely withered))
- e: wheat, effect on crop (criteria of Test Example 1) (wheat): 4 (Herbicidal ratio of 70% or higher and lower than 90%)
- f: beet, effect on crop (criteria of Test Example 1) (beet [6]): 0 (Herbicidal ratio of 5% or lower (almost no effect))

Compound: CON=C(C)CC1CC(OC(=O)N2CCOCC2)=C(c2c(C)cc(-c3ccc(Cl)cc3F)cc2C)C1=O (stereo not shown) [6-089]
- Herbicidal effect grade, A: Echinochloa oryzacola Vasing. [1]: 5 (Herbicidal ratio of 90% or more (almost completely withered))
- Effect grade on crop, a: transplanted rice plant (transplanted rice plant): 5 (Herbicidal ratio of 90% or more (almost completely withered))
- herbicidal effect on H (Echinochloa crus-galli var. crus-galli), grade 0-5 [2]: 5 (Herbicidal ratio of 90% or more (almost completely withered))
- Herbicidal effect grade, P: Stellaria media (Stellaria media): 0 (Herbicidal ratio of 5% or lower (almost no effect))
- Herbicidal effect grade, R: Veronica persica (Veronica persica): 0 (Herbicidal ratio of 5% or lower (almost no effect))
- Effect on crop grade, c: corn (corn): 0 (Herbicidal ratio of 5% or lower (almost no effect))
- Effect on crop grade, d: soybean (soybean [3]): 0 (Herbicidal ratio of 5% or lower (almost no effect))
- Effect on crop grade, f: beet (beet [4]): 0 (Herbicidal ratio of 5% or lower (almost no effect))
- J: Alopecurus myosuroides, herbicidal effect (criteria of Test Example 1) (Alopecurus myosuroides): 5 (Herbicidal ratio of 90% or more (almost completely withered))
- Q: Galium spurium, herbicidal effect (criteria of Test Example 1) (Galium spurium): 3 (Herbicidal ratio of 40% or higher and lower than 70%)
- e: wheat, effect on crop (criteria of Test Example 1) (wheat): 4 (Herbicidal ratio of 70% or higher and lower than 90%)
- f: beet, effect on crop (criteria of Test Example 1) (beet [6]): 0 (Herbicidal ratio of 5% or lower (almost no effect))

Compound: CON=C(C)CC1CC(O)=C(c2c(C)cc(-c3ccc(F)cc3)cc2C)C1=O (mixture of isomers) [6-058]
- Herbicidal effect grade, A: Echinochloa oryzacola Vasing. [1]: 5 (Herbicidal ratio of 90% or more (almost completely withered))
- Effect grade on crop, a: transplanted rice plant (transplanted rice plant): 5 (Herbicidal ratio of 90% or more (almost completely withered))
- herbicidal effect on H (Echinochloa crus-galli var. crus-galli), grade 0-5 [2]: 5 (Herbicidal ratio of 90% or more (almost completely withered))
- P: Stellaria media, herbicidal effect grade (Stellaria media): 5 (Herbicidal ratio of 90% or more (almost completely withered))
- R: Veronica persica, herbicidal effect grade (Veronica persica): 5 (Herbicidal ratio of 90% or more (almost completely withered))
- c: corn, effect on crop grade (corn): 5 (Herbicidal ratio of 90% or more (almost completely withered))
- d: soybean, effect on crop grade (soybean [3]): 0 (Herbicidal ratio of 5% or lower (almost no effect))
- f: beet, effect on crop grade (beet [4]): 4 (Herbicidal ratio of 70% or higher and lower than 90%)
- J: Alopecurus myosuroides, herbicidal effect (criteria of Test Example 1) (Alopecurus myosuroides): 5 (Herbicidal ratio of 90% or more (almost completely withered))
- Q: Galium spurium, herbicidal effect (criteria of Test Example 1) (Galium spurium): 5 (Herbicidal ratio of 90% or more (almost completely withered))
- d: soybean, effect on crop (criteria of Test Example 1) (soybean [5]): 2 (Herbicidal ratio of 20% or higher and lower than 40%)
- b: directly sowed rice plant, effect on crop (criteria of Test Example 1) (rice plant): 5 (Herbicidal ratio of 90% or more (almost completely withered))
- e: wheat, effect on crop (criteria of Test Example 1) (wheat): 5 (Herbicidal ratio of 90% or more (almost completely withered))
- f: beet, effect on crop (criteria of Test Example 1) (beet [6]): 5 (Herbicidal ratio of 90% or more (almost completely withered))
